Test results taken from ChEMBL document CHEMBL5321287, “Discovery, Synthesis, and Evaluation of Novel Dual Inhibitors of a Vascular Endothelial Growth Factor Receptor and Poly(ADP-Ribose) Polymerase for BRCA Wild-Type Breast Cancer Therapy” (J Med Chem, 2023).

What was measured:
[1] = Cmax in Sprague-Dawley rat at 1 mg/kg, iv by LC-MS analysis; assay type: ADME, organism-based; set-up: dose 1 mg/kg, route iv; settings: in vivo
[2] = Oral bioavailability in Sprague-Dawley rat at 10 mg/kg administered via gavage by LC-MS analysis; assay type: ADME, organism-based; settings: in vivo
[3] = Clearance in Sprague-Dawley rat at 1 mg/kg, iv by LC-MS analysis; assay type: ADME, organism-based; settings: in vivo
[4] = Cmax in Sprague-Dawley rat at 10 mg/kg, po via gavage by LC-MS analysis; assay type: ADME, organism-based; set-up: dose 10 mg/kg, route po; settings: in vivo
[5] = Half life in Sprague-Dawley rat at 10 mg/kg, po via gavage by LC-MS analysis; assay type: ADME, organism-based; settings: in vivo
[6] = Toxicity in BALB/c nude mouse xenografted with human MDA-MB-231 cells assessed as damage in lungs at 25 to 50 mg/kg, po for 14 days; assay type: organism-based; settings: in vivo, 336 h, dose 25-50 mg/kg, time 14 day
[7] = molecular target: Vascular endothelial growth factor receptor 1 (Homo sapiens, UniProt P17948); assay: Inhibition of VEGFR1 (unknown origin) by Z'-Lyte kinase assay
[8] = molecular target: Poly [ADP-ribose] polymerase 2 (Homo sapiens, UniProt Q9UGN5); assay: Inhibition of PARP2 (unknown origin)
[9] = molecular target: T1, Serine/threonine-protein kinase TAO2 (Homo sapiens, UniProt Q9UL54); assay: Inhibition of TAO2 (unknown origin) by Z'-Lyte kinase assay
T1 sequence (Q9UL54 whole entry): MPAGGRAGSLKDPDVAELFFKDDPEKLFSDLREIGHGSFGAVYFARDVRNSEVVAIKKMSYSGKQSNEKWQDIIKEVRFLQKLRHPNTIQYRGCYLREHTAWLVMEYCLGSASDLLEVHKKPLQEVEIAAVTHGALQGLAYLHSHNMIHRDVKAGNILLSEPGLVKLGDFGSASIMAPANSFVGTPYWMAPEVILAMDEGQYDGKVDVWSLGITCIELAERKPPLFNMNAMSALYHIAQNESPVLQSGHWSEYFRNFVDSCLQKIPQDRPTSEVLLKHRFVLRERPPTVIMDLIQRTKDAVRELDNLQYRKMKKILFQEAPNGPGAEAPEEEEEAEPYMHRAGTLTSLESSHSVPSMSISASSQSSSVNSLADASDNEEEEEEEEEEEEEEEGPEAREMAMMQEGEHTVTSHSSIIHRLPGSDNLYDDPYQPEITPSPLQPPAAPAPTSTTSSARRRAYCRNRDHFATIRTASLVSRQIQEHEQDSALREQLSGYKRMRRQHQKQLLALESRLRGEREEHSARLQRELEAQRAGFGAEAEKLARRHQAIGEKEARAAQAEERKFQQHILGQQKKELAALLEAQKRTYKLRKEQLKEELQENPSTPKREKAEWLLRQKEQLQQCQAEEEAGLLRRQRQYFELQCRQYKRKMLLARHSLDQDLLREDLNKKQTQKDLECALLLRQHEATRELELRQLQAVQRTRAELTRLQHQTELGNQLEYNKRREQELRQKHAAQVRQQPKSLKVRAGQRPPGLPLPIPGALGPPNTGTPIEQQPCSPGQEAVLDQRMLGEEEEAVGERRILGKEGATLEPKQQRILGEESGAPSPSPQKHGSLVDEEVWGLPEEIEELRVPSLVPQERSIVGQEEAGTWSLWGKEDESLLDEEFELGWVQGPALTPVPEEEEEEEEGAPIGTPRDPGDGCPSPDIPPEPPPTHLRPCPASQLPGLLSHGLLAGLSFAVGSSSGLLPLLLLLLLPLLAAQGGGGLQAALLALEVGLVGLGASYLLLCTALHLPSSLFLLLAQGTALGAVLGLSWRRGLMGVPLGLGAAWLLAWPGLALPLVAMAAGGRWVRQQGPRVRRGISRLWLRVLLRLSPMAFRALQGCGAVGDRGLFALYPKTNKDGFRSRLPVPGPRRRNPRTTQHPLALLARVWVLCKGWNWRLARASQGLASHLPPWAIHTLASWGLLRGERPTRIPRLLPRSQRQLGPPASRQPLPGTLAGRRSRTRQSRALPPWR

[10] = molecular target: Vascular endothelial growth factor receptor 3 (Homo sapiens, UniProt P35916); assay: Inhibition of VEGFR3 (unknown origin) by Z'-Lyte kinase assay
[11] = molecular target: Mitogen-activated protein kinase kinase kinase 11 (Homo sapiens, UniProt Q16584); assay: Inhibition of MLK3 (unknown origin) by Z'-Lyte kinase assay
[12] = AUC (0 to infinity) in Sprague-Dawley rat at 10 mg/kg, po via gavage by LC-MS analysis; assay type: ADME, organism-based; set-up: dose 10 mg/kg, route po; settings: in vivo
[13] = Half life in Sprague-Dawley rat at 1 mg/kg, iv by LC-MS analysis; assay type: ADME, organism-based; settings: in vivo
[14] = AUC (0 to t) in Sprague-Dawley rat at 10 mg/kg, po via gavage by LC-MS analysis; assay type: ADME, organism-based; set-up: dose 10 mg/kg, route po; settings: in vivo
[15] = molecular target: Serine/threonine-protein kinase 16 (Homo sapiens, UniProt O75716); assay: Inhibition of MPSK1 (unknown origin) by Z'-Lyte kinase assay
[16] = AUC (0 to infinity) in Sprague-Dawley rat at 1 mg/kg, iv by LC-MS analysis; assay type: ADME, organism-based; set-up: dose 1 mg/kg, route iv; settings: in vivo
[17] = Toxicity in BALB/c nude mouse xenografted with human MDA-MB-231 cells assessed as change in body weight at 25 to 50 mg/kg, po for 14 days; assay type: organism-based; settings: in vivo, 336 h, dose 25-50 mg/kg, time 14 day
[18] = Apparent volume of distribution in Sprague-Dawley rat at 1 mg/kg, iv by LC-MS analysis; assay type: ADME, organism-based; settings: in vivo, read-out: Vz
[19] = Toxicity in BALB/c nude mouse xenografted with human MDA-MB-231 cells assessed as damage in liver at 25 to 50 mg/kg, po for 14 days; assay type: organism-based; settings: in vivo, 336 h, dose 25-50 mg/kg, time 14 day
[20] = Toxicity in BALB/c nude mouse xenografted with human MDA-MB-231 cells assessed as damage in spleen at 25 to 50 mg/kg, po for 14 days; assay type: organism-based; settings: in vivo, 336 h, dose 25-50 mg/kg, time 14 day
[21] = AUC (0 to t) in Sprague-Dawley rat at 1 mg/kg, iv by LC-MS analysis; assay type: ADME, organism-based; set-up: dose 1 mg/kg, route iv; settings: in vivo
[22] = molecular target: Macrophage colony-stimulating factor 1 receptor (Homo sapiens, UniProt P07333); assay: Inhibition of FMS (unknown origin) by Z'-Lyte kinase assay
[23] = Toxicity in BALB/c nude mouse xenografted with human MDA-MB-231 cells assessed as damage in heart at 25 to 50 mg/kg, po for 14 days; assay type: organism-based; settings: in vivo, 336 h, dose 25-50 mg/kg, time 14 day
[24] = Toxicity in BALB/c nude mouse xenografted with human MDA-MB-231 cells assessed as damage in kidney at 25 to 50 mg/kg, po for 14 days; assay type: organism-based; settings: in vivo, 336 h, dose 25-50 mg/kg, time 14 day

Serine/threonine-protein kinase 16, sequence (O75716 whole entry): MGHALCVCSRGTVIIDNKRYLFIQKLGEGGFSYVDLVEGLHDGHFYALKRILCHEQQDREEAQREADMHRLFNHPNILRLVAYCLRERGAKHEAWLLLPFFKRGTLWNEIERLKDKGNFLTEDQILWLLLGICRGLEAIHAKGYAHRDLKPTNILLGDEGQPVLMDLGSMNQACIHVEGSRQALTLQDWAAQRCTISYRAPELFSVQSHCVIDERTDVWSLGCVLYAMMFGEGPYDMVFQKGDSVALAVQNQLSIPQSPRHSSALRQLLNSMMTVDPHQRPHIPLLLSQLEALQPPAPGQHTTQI
Macrophage colony-stimulating factor 1 receptor, sequence (P07333 whole entry): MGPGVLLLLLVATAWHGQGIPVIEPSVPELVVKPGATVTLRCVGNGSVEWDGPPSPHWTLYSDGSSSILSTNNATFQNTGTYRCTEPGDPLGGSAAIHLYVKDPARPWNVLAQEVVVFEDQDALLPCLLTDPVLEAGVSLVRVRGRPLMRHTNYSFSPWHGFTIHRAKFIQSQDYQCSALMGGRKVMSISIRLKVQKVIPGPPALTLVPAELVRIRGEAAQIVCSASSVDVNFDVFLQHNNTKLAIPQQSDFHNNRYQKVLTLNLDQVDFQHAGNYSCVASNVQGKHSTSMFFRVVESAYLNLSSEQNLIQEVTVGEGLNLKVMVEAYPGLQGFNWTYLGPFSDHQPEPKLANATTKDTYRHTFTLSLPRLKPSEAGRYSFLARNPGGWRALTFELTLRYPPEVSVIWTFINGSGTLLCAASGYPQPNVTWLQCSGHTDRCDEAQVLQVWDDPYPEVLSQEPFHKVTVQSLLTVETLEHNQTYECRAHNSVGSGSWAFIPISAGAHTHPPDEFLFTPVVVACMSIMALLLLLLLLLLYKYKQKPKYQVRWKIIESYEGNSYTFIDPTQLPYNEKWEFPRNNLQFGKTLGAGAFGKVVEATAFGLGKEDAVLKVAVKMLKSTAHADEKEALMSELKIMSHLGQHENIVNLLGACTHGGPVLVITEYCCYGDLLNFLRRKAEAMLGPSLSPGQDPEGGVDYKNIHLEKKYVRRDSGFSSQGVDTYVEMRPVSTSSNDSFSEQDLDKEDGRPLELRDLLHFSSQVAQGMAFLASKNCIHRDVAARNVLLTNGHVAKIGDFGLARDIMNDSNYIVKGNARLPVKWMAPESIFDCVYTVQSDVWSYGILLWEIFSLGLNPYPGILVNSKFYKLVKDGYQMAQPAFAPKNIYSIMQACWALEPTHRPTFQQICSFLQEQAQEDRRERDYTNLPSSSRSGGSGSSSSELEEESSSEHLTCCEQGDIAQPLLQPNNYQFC
Vascular endothelial growth factor receptor 1, sequence (P17948 whole entry): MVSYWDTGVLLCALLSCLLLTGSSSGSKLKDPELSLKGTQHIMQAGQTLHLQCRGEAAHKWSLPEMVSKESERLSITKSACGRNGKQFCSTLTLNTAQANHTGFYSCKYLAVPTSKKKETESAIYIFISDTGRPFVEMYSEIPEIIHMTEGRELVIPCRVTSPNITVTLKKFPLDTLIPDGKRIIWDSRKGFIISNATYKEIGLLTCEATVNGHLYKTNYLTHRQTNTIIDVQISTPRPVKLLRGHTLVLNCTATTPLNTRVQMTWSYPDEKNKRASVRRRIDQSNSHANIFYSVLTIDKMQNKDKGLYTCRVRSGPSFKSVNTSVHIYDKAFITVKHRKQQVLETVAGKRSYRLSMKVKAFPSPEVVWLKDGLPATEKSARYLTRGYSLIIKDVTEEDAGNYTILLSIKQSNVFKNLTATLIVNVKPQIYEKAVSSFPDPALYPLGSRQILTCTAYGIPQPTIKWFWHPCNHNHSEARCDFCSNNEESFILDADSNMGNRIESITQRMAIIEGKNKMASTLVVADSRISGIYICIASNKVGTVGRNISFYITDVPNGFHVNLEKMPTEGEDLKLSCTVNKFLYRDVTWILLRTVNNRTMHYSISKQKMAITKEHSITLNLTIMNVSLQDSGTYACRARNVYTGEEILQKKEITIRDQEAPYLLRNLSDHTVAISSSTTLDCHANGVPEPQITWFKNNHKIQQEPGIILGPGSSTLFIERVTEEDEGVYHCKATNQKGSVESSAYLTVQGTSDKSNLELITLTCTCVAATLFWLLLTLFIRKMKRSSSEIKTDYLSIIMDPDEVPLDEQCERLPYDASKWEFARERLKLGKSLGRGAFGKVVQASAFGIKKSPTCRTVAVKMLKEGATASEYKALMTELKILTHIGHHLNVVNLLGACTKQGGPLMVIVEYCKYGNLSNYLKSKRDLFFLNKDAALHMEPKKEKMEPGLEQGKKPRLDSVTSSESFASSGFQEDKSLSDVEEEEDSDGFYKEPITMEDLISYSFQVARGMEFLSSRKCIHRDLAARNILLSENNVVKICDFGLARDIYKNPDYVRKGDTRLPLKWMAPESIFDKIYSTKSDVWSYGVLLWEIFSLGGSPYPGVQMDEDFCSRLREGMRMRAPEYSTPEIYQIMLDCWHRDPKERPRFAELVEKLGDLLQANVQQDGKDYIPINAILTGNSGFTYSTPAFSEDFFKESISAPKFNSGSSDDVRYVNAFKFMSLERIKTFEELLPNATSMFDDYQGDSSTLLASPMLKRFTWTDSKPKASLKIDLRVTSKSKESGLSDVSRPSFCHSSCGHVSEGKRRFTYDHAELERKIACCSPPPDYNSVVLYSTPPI
Mitogen-activated protein kinase kinase kinase 11, sequence (Q16584 whole entry): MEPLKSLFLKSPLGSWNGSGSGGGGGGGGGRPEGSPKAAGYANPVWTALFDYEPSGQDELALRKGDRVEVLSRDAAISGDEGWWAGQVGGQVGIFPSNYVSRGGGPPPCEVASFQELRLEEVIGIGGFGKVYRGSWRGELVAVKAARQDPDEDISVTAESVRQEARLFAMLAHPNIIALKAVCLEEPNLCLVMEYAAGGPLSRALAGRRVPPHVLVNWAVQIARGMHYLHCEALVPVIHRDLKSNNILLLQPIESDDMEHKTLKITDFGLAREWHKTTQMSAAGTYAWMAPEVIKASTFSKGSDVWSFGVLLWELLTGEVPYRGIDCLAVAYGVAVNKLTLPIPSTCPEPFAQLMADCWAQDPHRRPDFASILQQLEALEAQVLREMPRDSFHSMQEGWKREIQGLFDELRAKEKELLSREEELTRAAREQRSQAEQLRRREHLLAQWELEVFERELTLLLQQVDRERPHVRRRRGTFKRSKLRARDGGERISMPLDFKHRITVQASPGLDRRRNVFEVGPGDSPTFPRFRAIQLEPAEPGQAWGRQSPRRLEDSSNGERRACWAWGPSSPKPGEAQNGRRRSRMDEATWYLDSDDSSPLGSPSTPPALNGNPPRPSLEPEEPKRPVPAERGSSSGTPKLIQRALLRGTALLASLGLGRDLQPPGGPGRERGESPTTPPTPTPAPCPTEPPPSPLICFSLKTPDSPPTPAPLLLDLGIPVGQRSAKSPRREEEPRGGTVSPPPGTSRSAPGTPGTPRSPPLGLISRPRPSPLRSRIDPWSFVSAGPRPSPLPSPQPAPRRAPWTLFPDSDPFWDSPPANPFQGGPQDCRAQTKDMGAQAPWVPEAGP
Poly [ADP-ribose] polymerase 2, sequence (Q9UGN5 whole entry): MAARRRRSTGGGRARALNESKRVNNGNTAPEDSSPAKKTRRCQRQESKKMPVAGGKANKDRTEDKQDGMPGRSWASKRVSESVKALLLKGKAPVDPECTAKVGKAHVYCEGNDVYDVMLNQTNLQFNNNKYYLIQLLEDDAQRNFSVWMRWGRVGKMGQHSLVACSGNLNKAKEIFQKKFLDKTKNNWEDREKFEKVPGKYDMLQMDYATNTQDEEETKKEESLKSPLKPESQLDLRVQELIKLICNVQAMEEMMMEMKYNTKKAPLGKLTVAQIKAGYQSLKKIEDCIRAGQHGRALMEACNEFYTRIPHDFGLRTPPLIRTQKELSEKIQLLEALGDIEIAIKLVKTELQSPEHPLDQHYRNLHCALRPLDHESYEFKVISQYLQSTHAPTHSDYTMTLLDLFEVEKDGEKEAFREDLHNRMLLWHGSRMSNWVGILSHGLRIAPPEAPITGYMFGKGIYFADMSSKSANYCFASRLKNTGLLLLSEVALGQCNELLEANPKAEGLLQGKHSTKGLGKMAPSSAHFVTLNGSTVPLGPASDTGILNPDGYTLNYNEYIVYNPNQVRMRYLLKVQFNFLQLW

In the case of Cc1ccc(Nc2nccc(N(C)c3ccc4c(C)n(C)nc4c3)n2)cc1-c1nc2c(C(N)=O)cccc2[nH]1, the Cmax [1] is reported as 482 ng/mL, the bioavailability [2] is reported as 60.1% and the clearance [3] is reported as 20.9 mL/min/kg. The Cmax [4] was 2430 ng/mL, the half-life [5] was 1 h and the Activity [6] was “Non-Toxic”. The IC50 [7] was 166 nM, the IC50 [8] was 78.4 nM and the IC50 [9] was 689 nM. The IC50 [10] was 499 nM, the IC50 [11] was 347 nM and the AUC(0-inf) [12] was 4920 ng·h/mL. The half-life [13] was 1.2 h, the AUC(0-t) [14] was 4900 ng·h/mL and the IC50 [15] was 148 nM. The AUC(0-inf) [16] was 821 ng·h/mL, the Activity [17] was “Non-Toxic” and the Vd [18] was 2.2 L/kg. For the same compound, the Activity [19] was “Non-Toxic”, the Activity [20] was “Non-Toxic” and the AUC(0-t) [21] was 815 ng·h/mL. For the same compound, the IC50 [22] was 299 nM, the Activity [23] was “Non-Toxic” and the Activity [24] was “Non-Toxic”.
